Here are results for three molecules from publication PMC9030166, “Natural Phaeosphaeride A Derivatives Overcome Drug Resistance of Tumor Cells and Modulate Signaling Pathways” (Pharmaceuticals, 2022).

The test system of one series is K562. As to the kind of experiment: MTT cytotoxicity, K562 chronic myeloid leukemia cells. It is filed as cell-based. The following applies: Homo sapiens. An excerpt:
(§1) Cell cultures used in the work: adhesive cultures HBL-100 cells (cells of a normal mammary gland epithelium, immortalized by the SV40 virus and acquired tumorigenicity); MCF-7 breast cancer cells; PC-3 prostate adenocarcinoma cells; HCT-116 colorectal cancer cells; non-small cell lung cancer cells A549; human embryonic kidney cells HEK293; suspension cultures (NCI-H929 and RPMI8226 multiple myeloma cells), K562 chronic myeloid leukemia cells; THP-1 acute monocytic leukemia cells; and Jurkat acute T-cell leukemia cells. We also used several primary cultures of soft tissue sarcomas at 3–4passeges, kindly provided by T.I. Fetisov (The Ethics Committee of N.N. Blokhin NMRCO, protocol code 18-28-09095 and date of approval 28 September 2018).
(§2) Modifications of cell lines: K562/i-S9 is a clone obtained after transfection of K562 cells with the ABCB1 (MDR1) gene-encoding P-glycoprotein [36]. Cells HBL-100/Dox and K562/i-S9_Dox are cells obtained by long-term selection with increasing concentrations of doxorubicin (Sigma-Aldrich, St. Louis, MO, USA) from HBL-100 and K562/i-S9 cells, respectively. MCF-7, A594 cells, and primary cultures of soft tissue sarcomas were cultured in DMEM medium (PanEko, Russia), PC-3 and HCT-116 cells and all suspension cultures in RPMI1640 medium (PanEko, Russia) supplemented with 10% fetal bovine serum (GE Healthcare LifeSciences, USA), and gentamicin at a concentration of 40 μg/mL at 37 °C and 5% CO2.
(§3) Cells MCF-7, PC-3, A549, and HCT-116, and primary cultures of STSwere seeded in 96-well plates, 6 × 10^3 cells per well in 90 μL of culture medium. Suspension cultures were seeded at a concentration of 25 × 10^3 cells per well in 135 μL of medium. The test substances were dissolved in DMSO (Applichem, Council Bluffs, IA, USA) until a concentration of 1 × 10^−^2 M was obtained; for the subsequent dilution of the substances, a serum-free culture medium was used. The next day, for adhesive cultures, and on the same day, for suspension cultures, substances were added to the plates in a volume of 10 μL (adhesive cultures) and 15 μL (suspension cultures) per well at various concentrations; each concentration was added in 3–4 repetitions. The cells were cultured in the presence of substances for 48 h. Then, MTT reagent (PanEko, Moscow, Russia) was added to the wells at a concentration of 5 mg/mL in a volume of 20 μL per well. After 1.5–2 h, the medium with the reagent was removed, and the precipitate of the crystals of formazan was dissolved in 60 μL of DMSO. The optical density was determined using a Multiskan FC spectrophotometer (Thermo Scientific, Waltham, MA, USA) at a wavelength of 540 nm.
(§4) Based on the results of the experiments, a schedule was plotted of the dependence of the percentage of surviving cells (from control) on the concentration of the compound, and the sought concentration IC50 was calculated. The experiments were carried out in 3–4 times.

A further series deals with Jurkat. The series can be described thus: MTT cytotoxicity, Jurkat acute T-cell leukemia cells. It is filed as cell-based. The note with it: Homo sapiens, suspension culture, 48 h.
Source text: as §1, §2, §3, §4

A further series has as its system A549. As to the kind of experiment: MTT cytotoxicity, A549 non-small cell lung cancer cells. It is filed as cell-based, human. The following applies: Homo sapiens, A549, adhesive tumor culture, 48 h.
Source text: as §1, §2, §3, §4

The next series relates to HEK293. As to the kind of experiment: MTT cytotoxicity, human embryonic kidney cells HEK293. It is filed as cell-based. The following applies: 48 h.
Source text: as §1, §3, §4

Another series deals with NCI-H929. As to the kind of experiment: MTT cytotoxicity, NCI-H929 multiple myeloma cells. It is filed as cell-based. The following applies: Homo sapiens, suspension culture, 48 h.
Source text: as §1, §2, §3, §4

For another series, the system named is MCF-7. As to the kind of experiment: MTT cytotoxicity, MCF-7 breast cancer cells. The note with it: Homo sapiens, MCF7, adhesive tumor culture, 48 h. It is filed as cell-based.
Source text: as §1, §2, §3, §4

A further series has as its system RPMI8226. As to the kind of experiment: MTT cytotoxicity, RPMI8226 multiple myeloma cells. It is filed as cell-based. The note with it: Homo sapiens, RPMI-8226, suspension culture, 48 h.
Source text: as §1, §2, §3, §4

Series [1] has as its system CMT № 2 (Malignant Schwannoma). As to the kind of experiment: MTT cytotoxicity, primary culture of soft tissue sarcoma CMT № 2. The note with it: Homo sapiens, 48 h. It is filed as cell-based.
Source text: (§5) It is believed that such cultures have a molecular profile that corresponds more with cells from the human body, in comparison with that of stable cultures of tumor cells (Table 3).
as §1, §2
as §3, with “Then, MTT reagent (PanEko, Moscow, Russia) was added to the wells at a concentration of 5 mg/mL in a volume of 20 μL per well. After 1.5–2 h, the medium with the reagent was removed, and the precipitate of the crystals of formazan was dissolved in 60 μL of DMSO.” left out
(§6) Based on the results of the experiments, a schedule was plotted of the dependence of the percentage of surviving cells (from control) on the concentration of the compound, and the sought concentration IC50 was calculated. […]

In series [2] the test system is CMT № 3 (Epithelial Sarcoma (Metastasis)). As to the kind of experiment: MTT cytotoxicity, primary culture of soft tissue sarcoma CMT № 3. It is filed as cell-based. The following applies: Homo sapiens, 48 h.
Source text: as §5, §1, §2
as §3, with “Then, MTT reagent (PanEko, Moscow, Russia) was added to the wells at a concentration of 5 mg/mL in a volume of 20 μL per well. After 1.5–2 h, the medium with the reagent was removed, and the precipitate of the crystals of formazan was dissolved in 60 μL of DMSO.” left out
as §6

For a further series, the system named is HCT-116. As to the kind of experiment: MTT cytotoxicity, HCT-116 colorectal cancer cells. It is filed as cell-based, human. The note with it: Homo sapiens, HCT-116, adhesive tumor culture, 48 h.
Source text: as §1, §2, §3, §4

In the next series the test system is PC3. As to the kind of experiment: MTT cytotoxicity, PC-3 prostate adenocarcinoma cells. It is filed as cell-based, human. The following applies: Homo sapiens, PC-3, adhesive tumor culture, 48 h.
Source text: as §1, §2, §3, §4

For series [3], the system named is CMT № 1 (Extraskeletal Ewing’s Sarcoma). As to the kind of experiment: MTT cytotoxicity, primary culture of soft tissue sarcoma CMT № 1. It is filed as cell-based. The following applies: Homo sapiens, 48 h.
Source text: as §5, §1, §2
as §3, with “Then, MTT reagent (PanEko, Moscow, Russia) was added to the wells at a concentration of 5 mg/mL in a volume of 20 μL per well. After 1.5–2 h, the medium with the reagent was removed, and the precipitate of the crystals of formazan was dissolved in 60 μL of DMSO.” left out
as §6

The next series deals with THP-1. The series can be described thus: MTT cytotoxicity, THP-1 acute monocytic leukemia cells. It is filed as cell-based. The note with it: Homo sapiens, suspension culture, 48 h.
Source text: as §1, §2, §3, §4

For another series, the system named is K562/i-S9. The series can be described thus: MTT cytotoxicity, resistant K562/i-S9 cells (ABCB1 transfected). It is filed as cell-based, human.
Source text: (§7) At the next stage, the cytotoxic activity of compounds 1, 2, and 9 (Scheme 2) was investigated on several pairs of cell lines that differ in the expression of P-gp and the method by which they were obtained. K562/i-S9 cells are the result of the ABCB1 transfection into K562 cells, which increases P-gp expression, but should not seriously affect other signaling pathways that could lead to drug resistance. K562/i-S9_Dox cells were obtained from K562/i-S9 by selection with low concentrations of doxorubicin to increase P-gp expression. Subline HBL-100/Dox is a derivative of HBL-100 cells, obtained by long-term selection with increasing concentrations of doxorubicin, which led not only to an increase in P-gp expression, but also to a change in the signaling pathways in this subline. Cells of the K562/i-S9_Dox subline express the highest level of P-gp: 94.7% ± 2.3 (p < 0.0001 relative to K562, and p = 0.04 relative to K562/i-S9). In cells of the K562/i-S9 line, the expression of P-gp is 80% ± 8.2 (p < 0.0001 relative to K562). At 0.7% ± 0.5, P-gp is practically not expressed in K562 cells (Figure 1).
as §2, §3, §4

The test system of the next series is K562/i-S9_Dox. The series can be described thus: MTT cytotoxicity, resistant K562/i-S9_Dox cells (P-gp overexpression). It is filed as cell-based, human.
Source text: as §7, §2, §3, §4

The next series has as its system HBL-100/Dox. As to the kind of experiment: MTT cytotoxicity, resistant HBL-100/Dox cells. The note with it: for IC50: Homo sapiens, HBL-100, resistant version, MTT, 48 h. It is filed as cell-based, human.
Source text: At the next stage, the cytotoxic activity of compounds 1, 2, and 9 (Scheme 2) was investigated on several pairs of cell lines that differ in the expression of P-gp and the method by which they were obtained. […] K562/i-S9_Dox cells were obtained from K562/i-S9 by selection with low concentrations of doxorubicin to increase P-gp expression.
as §2, §3
The experiments were carried out in 3–4 times.

The test system of a further series is HBL-100. The series can be described thus: MTT cytotoxicity, sensitive HBL-100 cells. It is filed as cell-based. The following applies: Homo sapiens, 48 h.
Source text: as §1, §3, §4

Setting [4] is: K562, suspension culture, 48 h (Table 2).

Take `C=C1C2=C(C(=O)N1OC)[C@@H](N(C)CCO)[C@@](C)(O)[C@H](CCCCC)O2` [Compound 8, (2S,3R,4R)-3-hydroxy-4-[(2-hydroxyethyl)(methyl)amino]-6-methoxy-3-methyl-7-methylene-2-pentyl-3,4,6,7-tetrahydropyrano[2,3-c]pyrrol-5(2H)-one]: the half-inhibitory concentration (IC50) amounted to 3.4 ± 0.3 µM in the series with K562 (setting [4]); 1 ± 0.3 µM in the series with Jurkat; 16.3 ± 0.9 µM in the series on A549; 3.8 ± 0.2 µM with HEK293; 0.9 ± 0.3 µM in the series on NCI-H929; 1.8 ± 0.4 µM in the series on MCF-7. The IC50 with RPMI8226 was 1.5 ± 0.4 µM; in series [1], 2.3 ± 0.8 µM; in [2] it was 4.8 ± 0.5 µM; in the series on HCT-116 it was 7.5 ± 1 µM; in the series on PC3, 3.3 ± 0.6 µM; in [3] it was 3.9 ± 0.8 µM. Also, in the series with THP-1, the IC50 is 1.8 ± 0.2 µM.
As for `COc1cccc2c1C(=O)c1c(O)c3c(c(O)c1C2=O)C[C@@](O)(C(=O)CO)C[C@@H]3O[C@H]1C[C@H](N)[C@H](O)[C@H](C)O1` [Doxorubicin, doxorubicin, reference compound], the 50% inhibitory concentration (IC50) with K562/i-S9 (Homo sapiens, K562i/S9, resistant version, ABCB1 transfected, MTT, 48 h) turned out to be 3.9 ± 1.6 µM; in the series with K562 (sensitive K562 cells (Table 4), 48 h), 0.36 ± 0.17 µM; in the series with K562/i-S9_Dox (Homo sapiens, K562, resistant version, doxorubicin selected, MTT, 48 h), 10.3 ± 1.2 µM; with HBL-100/Dox, 128 ± 7.4 µM; with HBL-100, 0.23 ± 0.03 µM. Also, the “resistance of K562/i-S9 cells relative to K562” value in the series with K562/i-S9 (ratio of IC50 values, Table 4) was determined as 11 times. In the series on K562/i-S9_Dox (ratio of IC50 values, Table 4), the “resistance of K562/i-S9_Dox cells relative to K562” value is listed as 28 times. The “resistance of K562/i-S9_Dox relative to K562/i-S9” value with K562/i-S9_Dox (ratio of IC50 values, Table 4) is 2.6 times. Moreover, the “resistance of HBL-100/Dox cells relative to HBL-100” value with HBL-100/Dox (ratio of IC50 values, Table 5) is recorded as 556 times.
Consider `COc1cc([C@@H]2c3cc4c(cc3[C@@H](O[C@@H]3O[C@@H]5CO[C@@H](C)O[C@H]5[C@H](O)[C@H]3O)[C@H]3COC(=O)[C@H]23)OCO4)cc(OC)c1O` [Etoposide, etoposide, reference compound], for which the 50% inhibitory concentration (IC50) is 5.5 ± 3 µM in the series with K562 (setting [4]); 0.9 ± 0.3 µM with Jurkat; 65.3 ± 5.2 µM in the series on A549; 2 ± 0.5 µM in the series on HEK293; 1.4 ± 0.5 µM in the series with NCI-H929; 8.9 ± 2.3 µM with MCF-7. For the same molecule, the IC50 in the series with RPMI8226 amounted to 7.2 ± 1.9 µM; in the series on HCT-116, 21 ± 9.9 µM; in the series with HBL-100/Dox it was 111 ± 8.3 µM; with PC3, 27.1 ± 3.2 µM; with HBL-100, 4.7 ± 0.9 µM; in the series on THP-1 it was 1.8 ± 0.2 µM.

Broadly, the IC50 is the concentration that inhibits the measured activity by half. A low value points to greater potency in that assay.
